What was measured:
Assay type in all cases: functional
A549 = test: Growth inhibition of human A549 cells after 24 hrs by MTT assay; details: A549, 24 h
Malme-3M = test: Growth inhibition of human MALME-3M cells after 24 hrs by MTT assay
K562 = test: Growth inhibition of human K562 cells after 24 hrs by MTT assay; details: K562, 24 h
U-251 = test: Growth inhibition of human U251 cells after 24 hrs by MTT assay; details: U-251, 24 h
MOLT-4 = test: Growth inhibition of human MOLT4 cells at 10 uM after 24 hrs by MTT assay relative to control; set-up: scale not given: the % may be the effect or the level left
UACC-62 = test: Growth inhibition of human UACC62 cells after 24 hrs by MTT assay; details: UACC-62, 24 h
SW-620 = test: Growth inhibition of human SW620 cells at 10 uM after 24 hrs by MTT assay relative to control; set-up: scale not given: the % may be the effect or the level left
SF-295 = test: Growth inhibition of human SF295 cells at 10 uM after 24 hrs by MTT assay relative to control; set-up: scale not given: the % may be the effect or the level left
MDA-MB-231 = test: Growth inhibition of human MDA-MB-231 cells at 10 uM after 24 hrs by MTT assay relative to control; set-up: scale not given: the % may be the effect or the level left
SK-MEL-28 = test: Growth inhibition of human SK-MEL-28 cells after 24 hrs by MTT assay; details: SK-MEL-28, 24 h
UO-31 = test: Growth inhibition of human UO31 cells after 24 hrs by MTT assay; details: UO-31, 24 h
HOP-62 = test: Growth inhibition of human HOP62 cells at 10 uM after 24 hrs by MTT assay relative to control; set-up: scale not given: the % may be the effect or the level left
MDA-MB-435 = test: Growth inhibition of human MDA-MB-435 cells at 10 uM after 24 hrs by MTT assay relative to control; set-up: scale not given: the % may be the effect or the level left
[1] = read-out: LC50 (the source's name)
[2] = read-out: pLC50 (the source's name) (converted)

Work on `Cc1onc(-c2c3ccccc3c(Cl)c3ccccc23)c1C(=O)Nc1cc(C(=O)NCCCN(C)CCCNC(=O)c2cc(NC(=O)c3c(-c4c5ccccc5c(Cl)c5ccccc45)noc3C)cn2C)n(C)c1` yielded a TGI (A549) of 2.85 µM, a GI50 (A549; read-out: GI50) of 1.28 µM and a GI50 (A549; read-out: pGI50 (converted)) of 1.29 µM. It also gave a TGI (Malme-3M) of 4.27 µM, a GI50 (Malme-3M; read-out: GI50) of 1.93 µM and a GI50 (Malme-3M; read-out: pGI50 (converted)) of 1.95 µM. For the same molecule, the TGI (K562) was 2.19 µM, the GI50 (K562; read-out: GI50) was 0.822 µM and the CC50 (K562; [1]) was 5.14 µM. It also gave a GI50 (K562; read-out: pGI50 (converted)) of 0.813 µM, a CC50 (K562; [2]) of 5.13 µM and a GI50 (U-251; read-out: GI50) of 1.5 µM. The GI50 (U-251; read-out: pGI50 (converted)) was 1.51 µM, the Activity (MOLT-4) was -100% and the TGI (UACC-62) was 3.44 µM. The GI50 (UACC-62; read-out: GI50) was 1.7 µM, the GI50 (UACC-62; read-out: pGI50 (converted)) was 1.7 µM and the Activity (SW-620) was -100%. It also gave an Activity (SF-295) of -75.66%, an Activity (MDA-MB-231) of -100% and a TGI (SK-MEL-28) of 2.98 µM. The GI50 (SK-MEL-28; read-out: GI50) was 1.63 µM, the CC50 (SK-MEL-28; [1]) was 5.46 µM and the GI50 (SK-MEL-28; read-out: pGI50 (converted)) was 1.62 µM. The CC50 (SK-MEL-28; [2]) was 5.5 µM, the TGI (UO-31) was 3.4 µM and the GI50 (UO-31; read-out: GI50) was 1.78 µM. The GI50 (UO-31; read-out: pGI50 (converted)) was 1.78 µM, the Activity (HOP-62) was -87.55% and the Activity (MDA-MB-435) was -100%.
